From patent publication US20150005264A1, “PREDICTIVE BIOMARKER FOR HYPOXIA-ACTIVATED PRODRUG THERAPY” (THRESHOLD PHARMACEUTICALS, INC., priority 2012, published 2015) come the findings set out here.

The subject of the experiment is melanoma. As to the kind of experiment: Clinical trial of TH-302 monotherapy in melanoma patients, response compared with serum CA-IX level. As to conditions: thirty melanoma patients, pre-dose serum CA-IX (ELISA) cut-offs 28.8, 77.1, 178.3 pg/mL, FIG. 1. The experiment is classed as in vivo, human. As for the experimental part: In one important embodiment, the HAP is TH-302. In a clinical trial of TH-302 in melanoma patients, CA-IX levels were measured in serum samples taken from patients prior to TH-302 administration. Measured levels varied widely, with the first quartile having levels of 28.8 pg/mL CA-IX or less, the median being 77.1 pg/mL CA-IX, and the 3rd quartile having 178.3 pg/mL or less.
The data set used to generate the graphs in FIG. 1 was used to generate the graph in FIG. 2, which uses the 2×Median value of 154.2 pg/mL as the cut-off for dividing patients into high and low CA-IX level groups. Using this value as the cut-off, one sees an even more dramatic example of the predictive value of CA-IX levels in determining whether a patient will respond to TH-302 or other HAP therapy.

Regarding `Cn1c(COP(=O)(NCCBr)NCCBr)cnc1[N+](=O)[O-]` [TH-302, (2-bromoethyl)({[(2-bromoethyl)amino][(2-nitro-3-methylimidazol-4-yl)methoxy]phosphoryl})amine], the “progression-free survival (response to TH-302) versus serum CA-IX level” value is listed as “higher CA-IX levels correlated to a better response to TH-302”.
